This note sets out measurements from US20240166635A1, “AMINOHETEROARYL KINASE INHIBITORS” (Anrui Biomedical Technology (Guangzhou) Co.,Ltd., priority 2020, published 2024).

What all share (assay type): biochemical
In one assay the target is CDK2/CyclinE1 (Homo sapiens (Human), UniProt P24941). Description: CDK2/CyclinE1 kinase inhibitory activity (Caliper mobility shift). Particulars: read-out: CDK2/Cyclin El IC50.
The target in a further assay is CDK1/CyclinB (Homo sapiens (Human), UniProt P06493). In words: CDK1/CyclinB kinase inhibitory activity (Caliper mobility shift). Particulars: read-out: CDK1/Cyclin B1 IC50.
Sequence of CDK1/CyclinB (P06493 whole entry): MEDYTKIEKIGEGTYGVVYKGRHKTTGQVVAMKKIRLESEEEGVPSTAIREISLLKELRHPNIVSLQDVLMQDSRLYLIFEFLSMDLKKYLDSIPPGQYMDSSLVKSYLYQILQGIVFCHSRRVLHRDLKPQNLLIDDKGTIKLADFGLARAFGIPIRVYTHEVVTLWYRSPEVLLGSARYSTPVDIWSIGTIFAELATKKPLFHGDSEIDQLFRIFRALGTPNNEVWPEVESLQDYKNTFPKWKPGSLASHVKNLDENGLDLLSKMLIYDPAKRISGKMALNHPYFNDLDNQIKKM
Sequence of CDK1/CyclinB (P14635 whole entry partner): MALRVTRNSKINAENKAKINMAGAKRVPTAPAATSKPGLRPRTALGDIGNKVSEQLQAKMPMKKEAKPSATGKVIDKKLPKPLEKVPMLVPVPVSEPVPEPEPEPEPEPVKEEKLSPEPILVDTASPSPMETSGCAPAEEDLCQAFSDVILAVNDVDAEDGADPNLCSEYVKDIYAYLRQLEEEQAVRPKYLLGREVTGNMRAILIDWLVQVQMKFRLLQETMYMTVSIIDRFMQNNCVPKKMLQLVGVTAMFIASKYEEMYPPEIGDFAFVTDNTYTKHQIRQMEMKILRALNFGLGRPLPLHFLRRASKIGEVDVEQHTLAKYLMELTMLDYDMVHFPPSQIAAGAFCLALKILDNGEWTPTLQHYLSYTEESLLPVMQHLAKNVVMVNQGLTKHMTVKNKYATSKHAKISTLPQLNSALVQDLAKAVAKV
A further assay concerns the target CDK4/Cyclin D1 (Homo sapiens (Human), UniProt P11802). Description: CDK4/CyclinD1 kinase inhibitory activity (Caliper mobility shift).
The target in another assay is CDK6/CyclinD1 (Homo sapiens (Human), UniProt Q00534). Description: CDK6/CyclinD1 kinase inhibitory activity (Caliper mobility shift). Particulars: read-out: CDK6/Cyclin D1 IC50.
Sequence of CDK6/CyclinD1 (Q00534 whole entry): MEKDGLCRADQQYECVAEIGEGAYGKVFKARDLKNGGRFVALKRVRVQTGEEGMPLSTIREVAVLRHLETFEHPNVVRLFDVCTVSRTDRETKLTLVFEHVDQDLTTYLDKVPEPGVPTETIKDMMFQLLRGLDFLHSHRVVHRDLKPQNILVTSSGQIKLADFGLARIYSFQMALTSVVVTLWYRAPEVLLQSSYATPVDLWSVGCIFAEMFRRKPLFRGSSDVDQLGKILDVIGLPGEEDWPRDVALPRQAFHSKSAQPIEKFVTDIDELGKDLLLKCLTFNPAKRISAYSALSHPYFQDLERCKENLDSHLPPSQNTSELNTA
Sequence of CDK6/CyclinD1 (P24385 whole entry partner): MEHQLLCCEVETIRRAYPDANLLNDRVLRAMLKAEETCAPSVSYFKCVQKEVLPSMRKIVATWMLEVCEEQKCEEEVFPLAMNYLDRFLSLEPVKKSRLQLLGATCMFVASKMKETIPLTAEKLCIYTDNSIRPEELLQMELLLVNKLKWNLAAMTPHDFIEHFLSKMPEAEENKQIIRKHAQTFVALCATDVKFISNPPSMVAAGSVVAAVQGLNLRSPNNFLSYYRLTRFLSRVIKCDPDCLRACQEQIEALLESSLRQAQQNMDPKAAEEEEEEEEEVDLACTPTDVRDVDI
The target in another assay is CDK7/CyclinH/MAT1 (Homo sapiens (Human), UniProt P50613). Description: CDK7/CyclinH/MAT1 kinase inhibitory activity (Caliper mobility shift).
Sequence of CDK7/CyclinH/MAT1 (P50613 whole entry): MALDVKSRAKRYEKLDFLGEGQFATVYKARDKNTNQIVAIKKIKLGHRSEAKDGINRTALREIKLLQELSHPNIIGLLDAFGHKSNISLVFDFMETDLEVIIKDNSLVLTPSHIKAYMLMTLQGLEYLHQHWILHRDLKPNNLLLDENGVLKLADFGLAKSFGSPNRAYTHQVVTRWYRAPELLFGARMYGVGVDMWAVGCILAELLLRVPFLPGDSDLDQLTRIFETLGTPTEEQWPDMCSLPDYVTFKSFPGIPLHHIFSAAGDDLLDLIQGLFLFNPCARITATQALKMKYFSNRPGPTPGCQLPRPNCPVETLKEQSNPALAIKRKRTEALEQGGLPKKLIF
Sequence of CDK7/CyclinH/MAT1 (P51946 whole entry partner): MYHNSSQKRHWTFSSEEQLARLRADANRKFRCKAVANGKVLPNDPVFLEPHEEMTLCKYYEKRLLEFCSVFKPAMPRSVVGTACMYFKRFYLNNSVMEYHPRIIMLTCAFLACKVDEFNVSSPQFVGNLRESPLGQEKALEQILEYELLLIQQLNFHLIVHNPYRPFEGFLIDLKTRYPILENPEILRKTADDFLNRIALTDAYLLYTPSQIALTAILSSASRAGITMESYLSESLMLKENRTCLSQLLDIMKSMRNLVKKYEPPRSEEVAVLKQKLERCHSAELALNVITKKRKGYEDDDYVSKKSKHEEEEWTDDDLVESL
Sequence of CDK7/CyclinH/MAT1 (P51948 whole entry partner): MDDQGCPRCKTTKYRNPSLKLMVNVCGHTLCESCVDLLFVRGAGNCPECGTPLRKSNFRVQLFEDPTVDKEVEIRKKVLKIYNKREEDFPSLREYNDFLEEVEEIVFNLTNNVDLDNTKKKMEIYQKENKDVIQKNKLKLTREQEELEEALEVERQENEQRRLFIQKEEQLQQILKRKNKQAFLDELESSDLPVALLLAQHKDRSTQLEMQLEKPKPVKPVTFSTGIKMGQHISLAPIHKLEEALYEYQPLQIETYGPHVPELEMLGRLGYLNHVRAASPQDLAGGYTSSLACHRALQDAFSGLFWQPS
The next assay addresses CDK9/CyclinT1 (Homo sapiens (Human), UniProt P50750). Description: CDK9/CyclinT1 kinase inhibitory activity (Caliper mobility shift). Particulars: read-out: CDK9/Cyclin T1 IC50.

Sequence of CDK9/CyclinT1 (P50750 whole entry): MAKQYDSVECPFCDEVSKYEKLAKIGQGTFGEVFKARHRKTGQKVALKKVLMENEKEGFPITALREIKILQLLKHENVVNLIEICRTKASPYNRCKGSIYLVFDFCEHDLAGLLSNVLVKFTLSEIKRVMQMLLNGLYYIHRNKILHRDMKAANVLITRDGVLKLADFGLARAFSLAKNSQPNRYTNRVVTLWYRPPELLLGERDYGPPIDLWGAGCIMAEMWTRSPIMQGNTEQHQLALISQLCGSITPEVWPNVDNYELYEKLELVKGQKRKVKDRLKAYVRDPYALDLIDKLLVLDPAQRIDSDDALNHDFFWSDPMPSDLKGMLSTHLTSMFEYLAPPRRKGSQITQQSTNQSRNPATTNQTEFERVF
Sequence of CDK9/CyclinT1 (O60563 whole entry partner): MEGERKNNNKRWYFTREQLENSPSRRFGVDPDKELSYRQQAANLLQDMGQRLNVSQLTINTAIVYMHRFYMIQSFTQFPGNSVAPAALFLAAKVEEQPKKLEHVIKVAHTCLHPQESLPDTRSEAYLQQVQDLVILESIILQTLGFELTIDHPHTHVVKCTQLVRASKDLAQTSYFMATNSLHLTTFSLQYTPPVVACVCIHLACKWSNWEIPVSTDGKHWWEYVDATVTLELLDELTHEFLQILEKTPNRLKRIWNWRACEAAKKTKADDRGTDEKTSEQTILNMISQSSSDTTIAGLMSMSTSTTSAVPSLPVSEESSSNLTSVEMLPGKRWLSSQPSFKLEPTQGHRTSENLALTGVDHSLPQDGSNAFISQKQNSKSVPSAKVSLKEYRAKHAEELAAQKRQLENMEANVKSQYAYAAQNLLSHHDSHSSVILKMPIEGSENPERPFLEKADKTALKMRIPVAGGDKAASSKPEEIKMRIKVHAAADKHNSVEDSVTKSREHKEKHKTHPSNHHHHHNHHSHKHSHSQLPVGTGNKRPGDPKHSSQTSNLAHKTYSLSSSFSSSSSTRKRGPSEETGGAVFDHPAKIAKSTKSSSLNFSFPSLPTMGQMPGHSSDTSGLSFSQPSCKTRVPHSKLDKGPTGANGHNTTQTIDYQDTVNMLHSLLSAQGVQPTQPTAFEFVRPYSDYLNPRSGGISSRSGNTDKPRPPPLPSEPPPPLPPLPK
Sequence of CDK4/Cyclin D1 (P11802 whole entry): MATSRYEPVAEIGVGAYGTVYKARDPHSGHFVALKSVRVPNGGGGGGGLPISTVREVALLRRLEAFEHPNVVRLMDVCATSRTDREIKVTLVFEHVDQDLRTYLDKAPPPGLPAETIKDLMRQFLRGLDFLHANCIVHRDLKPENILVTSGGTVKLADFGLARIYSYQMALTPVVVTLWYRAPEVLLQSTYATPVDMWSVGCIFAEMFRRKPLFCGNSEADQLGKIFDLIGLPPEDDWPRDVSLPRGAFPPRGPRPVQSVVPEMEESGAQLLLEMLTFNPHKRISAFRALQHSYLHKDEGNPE
Sequence of CDK4/Cyclin D1 (P24385 whole entry partner): as the sequence (P24385 whole entry partner) above

`CC1(O)CCCC1Oc1nc(Nc2ccc(S(N)(=O)=O)cc2)ncc1C#N` (single isomer, unassigned) [Example 23a]: the IC50 at CDK2/CyclinE1 is less than 10 nM; on CDK1/CyclinB, less than 10 nM; on CDK4/Cyclin D1, 10 to 100 nM; at CDK6/CyclinD1 it was 10 to 100 nM; at CDK7/CyclinH/MAT1, 100 to 1000 nM; at CDK9/CyclinT1, 10 to 100 nM.
Turning to `CC1(O)CCCCC1Oc1nc(Nc2ccc(S(N)(=O)=O)cc2)ncc1C#N` (single isomer, unassigned) [Example 24a], the IC50 on CDK2/CyclinE1, at CDK1/CyclinB, on CDK4/Cyclin D1, at CDK6/CyclinD1, on CDK7/CyclinH/MAT1 and on CDK9/CyclinT1 was less than 10 nM in each case.
Consider `N#Cc1cnc(Nc2ccc(S(=O)(=O)NC3CC(F)C3)cc2)nc1OC1CCCCC1O` (single isomer, unassigned) [Example 31a], for which the IC50 was less than 10 nM on CDK2/CyclinE1; 10 to 100 nM at CDK1/CyclinB; 10 to 100 nM on CDK4/Cyclin D1; 100 to 1000 nM on CDK6/CyclinD1; not below 1000 nM on CDK7/CyclinH/MAT1; 100 to 1000 nM on CDK9/CyclinT1.
On to `[2H]C([2H])([2H])NS(=O)(=O)c1ccc(Nc2ncc(C#N)c(OC3CCCOCC3)n2)cc1` (single isomer, unassigned) [Example 33a], for which the IC50 was less than 10 nM at CDK2/CyclinE1; 10 to 100 nM on CDK1/CyclinB; 10 to 100 nM at CDK4/Cyclin D1; 100 to 1000 nM at CDK6/CyclinD1; not below 1000 nM at CDK7/CyclinH/MAT1; 100 to 1000 nM on CDK9/CyclinT1.
Consider `CNS(=O)(=O)c1ccc(Nc2ncc(C#N)c(OC3CCCC3(C)O)n2)cc1` (single isomer, unassigned) [Example 34a], for which the IC50 at CDK2/CyclinE1 was less than 10 nM; at CDK1/CyclinB it was less than 10 nM; on CDK4/Cyclin D1 it was 10 to 100 nM; at CDK6/CyclinD1, 10 to 100 nM; at CDK7/CyclinH/MAT1, 10 to 100 nM; on CDK9/CyclinT1 it was 100 to 1000 nM.
Turning to `CC(C)NS(=O)(=O)c1ccc(Nc2ncc(C#N)c(OC3CCCC3(C)O)n2)cc1` (single isomer, unassigned) [Example 35a], the IC50 on CDK2/CyclinE1 was less than 10 nM; at CDK1/CyclinB, less than 10 nM; at CDK4/Cyclin D1, 10 to 100 nM; at CDK6/CyclinD1 it was 10 to 100 nM; at CDK7/CyclinH/MAT1, 10 to 100 nM; at CDK9/CyclinT1, 10 to 100 nM.
For `CCS(=O)(=O)N1CCC(Nc2ncc(C#N)c(OC3CCCC3(C)O)n2)CC1` (single isomer, unassigned) [Example 36b], the IC50 on CDK2/CyclinE1 was less than 10 nM; at CDK1/CyclinB, 10 to 100 nM; at CDK4/Cyclin D1, less than 10 nM; on CDK6/CyclinD1, 10 to 100 nM; at CDK7/CyclinH/MAT1, 100 to 1000 nM; on CDK9/CyclinT1, 100 to 1000 nM.
Turning to `CC1(O)CCCC1Oc1nc(NC2CCN(S(=O)(=O)CF)CC2)ncc1C#N` (single isomer, unassigned) [Example 37a], the IC50 was less than 10 nM at CDK2/CyclinE1; 10 to 100 nM at CDK1/CyclinB; less than 10 nM on CDK4/Cyclin D1; 10 to 100 nM on CDK6/CyclinD1; 10 to 100 nM at CDK7/CyclinH/MAT1; 100 to 1000 nM on CDK9/CyclinT1.
Turning to `CC1(O)CCCC1Oc1nc(NC2CCN(S(=O)(=O)CC3CC3)CC2)ncc1C#N` (single isomer, unassigned) [Example 38a], the IC50 is less than 10 nM at CDK2/CyclinE1; 10 to 100 nM on CDK1/CyclinB; less than 10 nM at CDK4/Cyclin D1; less than 10 nM at CDK6/CyclinD1; 10 to 100 nM at CDK7/CyclinH/MAT1; 100 to 1000 nM on CDK9/CyclinT1.
For `CC(C)CS(=O)(=O)N1CCC(Nc2ncc(C#N)c(OC3CCCC3(C)O)n2)CC1` (single isomer, unassigned) [Example 39a], the IC50 is less than 10 nM at CDK2/CyclinE1; 10 to 100 nM on CDK1/CyclinB; 10 to 100 nM on CDK4/Cyclin D1; less than 10 nM at CDK6/CyclinD1; 100 to 1000 nM on CDK7/CyclinH/MAT1; 100 to 1000 nM at CDK9/CyclinT1.
In the case of `CC1(O)CCCC1Oc1nc(NC2CCN(S(=O)(=O)CC3CCOC3)CC2)ncc1C#N` (single isomer, unassigned) [Example 40a], the IC50 at CDK2/CyclinE1 was less than 10 nM; on CDK1/CyclinB it was 10 to 100 nM; at CDK4/Cyclin D1 it was less than 10 nM; at CDK6/CyclinD1, less than 10 nM; on CDK7/CyclinH/MAT1 it was 100 to 1000 nM; at CDK9/CyclinT1, 100 to 1000 nM.
As to `CC1(O)CCCC1Oc1nc(NC2CCN(S(=O)(=O)CC(F)(F)F)CC2)ncc1C#N` (single isomer, unassigned) [Example 43a], the IC50 is less than 10 nM at CDK2/CyclinE1; 10 to 100 nM on CDK1/CyclinB; less than 10 nM at CDK4/Cyclin D1; 10 to 100 nM at CDK6/CyclinD1; 100 to 1000 nM at CDK7/CyclinH/MAT1; 100 to 1000 nM on CDK9/CyclinT1.
Turning to `CC1(O)CC(F)(F)CC1Oc1nc(NC2CCN(S(=O)(=O)CC3CC3)CC2)ncc1C#N` (single isomer, unassigned) [Example 44b], the IC50 was less than 10 nM on CDK2/CyclinE1; 10 to 100 nM on CDK1/CyclinB; 10 to 100 nM on CDK4/Cyclin D1; less than 10 nM on CDK6/CyclinD1; 10 to 100 nM at CDK7/CyclinH/MAT1; 100 to 1000 nM on CDK9/CyclinT1.
On to `CC1(O)COCCC1Oc1nc(NC2CCN(S(C)(=O)=O)CC2)ncc1C#N` (single isomer, unassigned) [Example 45a], for which the IC50 is less than 10 nM on CDK2/CyclinE1; 10 to 100 nM at CDK1/CyclinB; 10 to 100 nM on CDK4/Cyclin D1; 10 to 100 nM at CDK6/CyclinD1; 10 to 100 nM at CDK7/CyclinH/MAT1; 100 to 1000 nM at CDK9/CyclinT1.
Regarding `CC1(O)CCC(F)(F)CC1Oc1nc(NC2CCN(S(C)(=O)=O)CC2)ncc1C#N` (single isomer, unassigned) [Example 46b], the IC50 was less than 10 nM at CDK2/CyclinE1; less than 10 nM at CDK1/CyclinB; less than 10 nM on CDK4/Cyclin D1; less than 10 nM on CDK6/CyclinD1; less than 10 nM at CDK7/CyclinH/MAT1; 10 to 100 nM at CDK9/CyclinT1.
In the case of `CC1(O)CC(F)(F)CCC1Oc1nc(NC2CCN(S(C)(=O)=O)CC2)ncc1C#N` (single isomer, unassigned) [Example 47a], the IC50 is less than 10 nM at CDK2/CyclinE1; 10 to 100 nM at CDK1/CyclinB; less than 10 nM at CDK4/Cyclin D1; less than 10 nM on CDK6/CyclinD1; 10 to 100 nM on CDK7/CyclinH/MAT1; 100 to 1000 nM at CDK9/CyclinT1.
For the compound `CC1(O)CC(F)(F)CCC1Oc1nc(NC2CCN(S(C)(=O)=O)CC2)ncc1C#N` (single isomer, unassigned) [Example 47b], the IC50 was 100 to 1000 nM at CDK2/CyclinE1; not below 1000 nM at CDK1/CyclinB; 100 to 1000 nM on CDK4/Cyclin D1; 100 to 1000 nM on CDK6/CyclinD1; not below 1000 nM on CDK7/CyclinH/MAT1; not below 1000 nM on CDK9/CyclinT1.
As to `Cn1cc(S(=O)(=O)N2CCC(Nc3ncc(C#N)c(OC4CCCC4(C)O)n3)CC2)cn1` (single isomer, unassigned) [Example 48a], the IC50 at CDK2/CyclinE1 was less than 10 nM; on CDK1/CyclinB, less than 10 nM; on CDK4/Cyclin D1, less than 10 nM; on CDK6/CyclinD1 it was less than 10 nM; on CDK7/CyclinH/MAT1, 10 to 100 nM; at CDK9/CyclinT1, 100 to 1000 nM.
In the case of `Cn1cnc(S(=O)(=O)N2CCC(Nc3ncc(C#N)c(OC4CCCC4(C)O)n3)CC2)c1` (single isomer, unassigned) [Example 50a], the IC50 on CDK2/CyclinE1 was less than 10 nM; at CDK1/CyclinB, less than 10 nM; at CDK4/Cyclin D1, less than 10 nM; on CDK6/CyclinD1, less than 10 nM; at CDK7/CyclinH/MAT1, 100 to 1000 nM; at CDK9/CyclinT1 it was 100 to 1000 nM.
On to `NS(=O)(=O)c1ccc(Nc2ncc(C(F)(F)F)c(O[C@@H]3CCC[C@@H]3O)n2)cc1` (single isomer, unassigned) [Example 99a, cis-4-((4-((2-hydroxycyclopentyl)oxy)-5-(trifluoromethyl)pyrimidin-2-yl)amino)benzenesulfonamide], for which the IC50 on CDK2/CyclinE1 was less than 10 nM; at CDK1/CyclinB, 10 to 100 nM; at CDK4/Cyclin D1, 100 to 1000 nM; at CDK6/CyclinD1, 10 to 100 nM; on CDK7/CyclinH/MAT1 it was 100 to 1000 nM; at CDK9/CyclinT1, 10 to 100 nM.
Turning to `[2H]C([2H])([2H])NS(=O)(=O)c1ccc(Nc2ncc(C(F)(F)F)c(O[C@H]3CCOC[C@H]3O)n2)cc1` (single isomer, unassigned) [Example 100a, cis-4-((4-((3-hydroxytetrahydro-2H-pyran-4-yl)oxy)-5-(trifluoromethyl)pyrimidin-2-yl)amino)-N-(methyl-d3)benzenesulfonamide], the IC50 at CDK2/CyclinE1 was less than 10 nM; at CDK1/CyclinB it was 10 to 100 nM; at CDK4/Cyclin D1, 100 to 1000 nM; at CDK6/CyclinD1, 100 to 1000 nM; on CDK7/CyclinH/MAT1, 100 to 1000 nM; at CDK9/CyclinT1, 100 to 1000 nM.
As to `[2H]C([2H])([2H])NS(=O)(=O)c1ccc(Nc2ncc(C(F)(F)F)c(O[C@H]3CCOC[C@H]3O)n2)c(F)c1` (single isomer, unassigned) [Example 101a, cis-3-fluoro-4-((4-((3-hydroxytetrahydro-2H-pyran-4-yl)oxy)-5-(trifluoromethyl)pyrimidin-2-yl)amino)-N-(methyl-d3)benzenesulfonamide], the IC50 was less than 10 nM at CDK2/CyclinE1; 100 to 1000 nM at CDK1/CyclinB; not below 1000 nM on CDK4/Cyclin D1; not below 1000 nM at CDK6/CyclinD1; not below 1000 nM on CDK7/CyclinH/MAT1; not below 1000 nM at CDK9/CyclinT1.
`[2H]C([2H])([2H])NS(=O)(=O)c1ccc(Nc2ncc(C(F)(F)F)c(O[C@H]3CCCOC[C@H]3O)n2)cc1` (single isomer, unassigned) [Example 103a, cis-4-((4-((3-hydroxyoxepan-4-yl)oxy)-5-(trifluoromethyl)pyrimidin-2-yl)amino)-N-(methyl-d3)benzenesulfonamide]: the IC50 is less than 10 nM at CDK2/CyclinE1; 10 to 100 nM on CDK1/CyclinB; 100 to 1000 nM at CDK4/Cyclin D1; 100 to 1000 nM on CDK6/CyclinD1; 100 to 1000 nM on CDK7/CyclinH/MAT1; 100 to 1000 nM at CDK9/CyclinT1.
